According to patent publication US20070128217A1 (priority 2003, published 2007):

What was measured:
[1] = tested on: antibodies in sera from SARS patients (sera 1a, 1b, 2, 6, 37, 62, London, SARS-yellow, SARS-green); assay type: binding, human; parameters: Binding of serum 6 to linear peptides of protein X1 of SARS-CoV Urbani / Binding of serum 37 to linear peptides of protein X1 of SARS-CoV Urbani / Binding of serum 6 to looped/cyclic peptide (PEPSCAN-ELISA) / Binding of serum 37 to looped/cyclic peptide (PEPSCAN-ELISA) / Binding of serum 37 to looped/cyclic peptides of protein X1 of SARS-CoV Urbani / Binding of serum 6 to linear peptides of protein X2 / Binding of serum 37 to linear peptides of protein X2 / Binding of serum 37 to looped/cyclic peptides of protein X2 of SARS-CoV Urbani / Binding of serum 6 to linear peptides of protein M of SARS-CoV Urbani / Binding of serum 37 to linear peptides of protein M of SARS-CoV Urbani / Binding of serum 6 to looped/cyclic peptides of protein M of SARS-CoV Urbani / Binding of serum 37 to looped/cyclic peptides of protein M of SARS-CoV Urbani / Binding of serum 6 to linear peptides of protein X3 of SARS-CoV Urbani / Binding of serum 37 to linear peptides of protein X3 of SARS-CoV Urbani / Binding of serum 37 to looped/cyclic peptides of protein X3 of SARS-CoV Urbani / Binding of serum 6 to linear peptides of protein X4 of SARS-CoV Urbani / Binding of serum 37 to linear peptides of protein X4 of SARS-CoV Urbani / Binding of serum 37 to looped/cyclic peptides of protein X4 of SARS-CoV Urbani / Binding of serum 6 to linear peptides of protein X5 of SARS-CoV Urbani / Binding of serum 37 to linear peptides of protein X5 of SARS-CoV Urbani / Binding of serum 37 to looped/cyclic peptides of protein X5 of SARS-CoV Urbani / Binding of serum 6 to linear peptides of protein N of SARS-CoV Urbani / Binding of serum 37 to linear peptides of protein N of SARS-CoV Urbani / Binding of serum 6 to linear peptide (PEPSCAN-ELISA) / Binding of serum 1a to looped/cyclic peptides of protein N of SARS-CoV Urbani / Binding of serum 1b to looped/cyclic peptides of protein N of SARS-CoV Urbani / Binding of serum 2 to looped/cyclic peptides of protein N of SARS-CoV Urbani / Binding of serum 6 to looped/cyclic peptides of protein N of SARS-CoV Urbani / Binding of serum 37 to looped/cyclic peptides of protein N of SARS-CoV Urbani / Binding of serum 62 to looped/cyclic peptides of protein N of SARS-CoV Urbani / Binding of serum London to looped/cyclic peptides of protein N of SARS-CoV Urbani / Binding of serum SARS-green to looped/cyclic peptides of protein N of SARS-CoV Urbani: unit not given here
[2] = tested on: rabbit serum obtained by immunizing a rabbit with the SARS-CoV strain Frankfurt 1; assay type: binding; parameters: Binding of a rabbit serum to linear peptides / Binding of a rabbit serum to looped peptides / Rabbit serum linear peptides / Rabbit serum looped peptides / Binding of a rabbit serum to linear peptides of protein N of SARS-CoV Urbani (Rabbit serum linear peptides) / Binding of a rabbit serum to looped/cyclic peptides of protein N of SARS-CoV Urbani (Rabbit serum looped peptides): unit not given here
[3] = tested on: control sera (pooled serum of ten healthy LUMC hospital workers; commercial negative donor pooled serum from the Dutch bloodbank); assay type: binding, human; parameters: Binding of Control serum LUMC to linear peptides / Binding of Control serum Blood-bank to linear peptides / Binding of Control serum LUMC to looped peptides / Binding of Control Serum Blood-Bank to Looped peptides / Binding of Control serum LUMC to linear peptides of the protein M of SARS-CoV Urbani / Binding of Control serum Blood-bank to linear peptides of the protein M of SARS-CoV Urbani / Binding of Control serum LUMC to looped peptides of the protein M of SARS-CoV Urbani / Binding of Control Serum Blood-Bank to Looped peptides of the protein M of SARS-CoV Urbani: unit not given here
[4] = tested on: recombinant human anti-SARS-CoV antibody 03-018; assay type: binding; parameters: Binding of antibody 03-018 to linear peptides of the N protein of SARS-CoV Urbani / Binding of antibody 03-018 to looped/cyclic peptides of the N protein of SARS-CoV Urbani: unit not given here

Sequence	Binding of serum 1a to linear peptide (PEPSCAN-ELISA) [1]	Binding of serum 1a to looped/cyclic peptides of protein N of SARS-CoV Urbani [1]	Binding of serum 1b to linear peptide (PEPSCAN-ELISA) [1]	Binding of serum 1b to looped/cyclic peptides of protein N of SARS-CoV Urbani [1]	Binding of serum 2 to linear peptide (PEPSCAN-ELISA) [1]	Binding of serum 2 to looped/cyclic peptides of protein N of SARS-CoV Urbani [1]	Binding of serum 6 to looped/cyclic peptides of protein N of SARS-CoV Urbani [1]	Binding of serum 37 to looped/cyclic peptides of protein N of SARS-CoV Urbani [1]	Binding of serum 62 to looped/cyclic peptides of protein N of SARS-CoV Urbani [1]	Binding of serum London to looped/cyclic peptides of protein N of SARS-CoV Urbani [1]	Binding of serum SARS-green to looped/cyclic peptides of protein N of SARS-CoV Urbani [1]	Binding of serum SARS-yellow to looped/cyclic peptides of protein N of SARS-CoV Urbani [1]	Binding of a rabbit serum to linear peptides of protein N of SARS-CoV Urbani (Rabbit serum linear peptides) [2]	Binding of a rabbit serum to looped/cyclic peptides of protein N of SARS-CoV Urbani (Rabbit serum looped peptides) [2]	Binding of Control Serum Blood-Bank to Looped peptides [3]	Binding of Control serum Blood-bank to linear peptides [3]	Binding of Control serum LUMC to linear peptides [3]	Binding of Control serum LUMC to looped peptides [3]	Binding of antibody 03-018 to linear peptides of the N protein of SARS-CoV Urbani [4]	Binding of antibody 03-018 to looped/cyclic peptides of the N protein of SARS-CoV Urbani [4]	further results
GGETALALLLLDRLN	0.2	0.4	0.1	0.3	0.2	0.5	0.2	0.7	0.7	0.5	0.3	0.7	0.1	0.6	0.8	0.7	0.6	0.8	0.1	0.2	Binding of serum 6 to linear peptide (PEPSCAN-ELISA) [1]: 0.2; Binding of serum 37 to linear peptide (PEPSCAN-ELISA) [1]: 0.6; Binding of serum 62 to linear peptide (PEPSCAN-ELISA) [1]: 0.6; Binding of serum London to linear peptide (PEPSCAN-ELISA) [1]: 0.4; Binding of serum SARS-green to linear peptide (PEPSCAN-ELISA) [1]: 0.4; Binding of serum SARS-yellow to linear peptide (PEPSCAN-ELISA) [1]: 0.5
GGGETALALLLLDRL	0.2	0.4	0.1	0.3	0.1	0.5	0.2	0.8	0.7	0.4	0.3	0.7	0.1	0.7	0.7	0.5	0.6	0.8	0.1	0.2	Binding of serum 6 to linear peptide (PEPSCAN-ELISA) [1]: 0.1; Binding of serum 37 to linear peptide (PEPSCAN-ELISA) [1]: 0.7; Binding of serum 62 to linear peptide (PEPSCAN-ELISA) [1]: 0.5; Binding of serum London to linear peptide (PEPSCAN-ELISA) [1]: 0.4; Binding of serum SARS-green to linear peptide (PEPSCAN-ELISA) [1]: 0.2; Binding of serum SARS-yellow to linear peptide (PEPSCAN-ELISA) [1]: 0.6
GGSQASSRSSSRSRG	0.3	0.3	0.1	0.2	0.3	0.4	0.4	0.5	0.4	0.4	0.0	0.3	0.2	0.5	0.6	0.7	0.8	0.6	0.1	0.2	Binding of serum 6 to linear peptide (PEPSCAN-ELISA) [1]: 0.4; Binding of serum 37 to linear peptide (PEPSCAN-ELISA) [1]: 0.7; Binding of serum 62 to linear peptide (PEPSCAN-ELISA) [1]: 0.7; Binding of serum London to linear peptide (PEPSCAN-ELISA) [1]: 0.5; Binding of serum SARS-green to linear peptide (PEPSCAN-ELISA) [1]: 0.7; Binding of serum SARS-yellow to linear peptide (PEPSCAN-ELISA) [1]: 0.9
GIVWVATEGALNTPK	–	0.3	–	0.1	–	0.4	0.2	0.5	0.4	0.4	0.3	0.3	0.2	0.5	0.5	1.0	1.0	0.5	0.1	0.2	Binding of serum 1a to linear peptides of protein N of SARS-CoV Urbani [1]: 0.3; Binding of serum 1b to linear peptides of protein N of SARS-CoV Urbani [1]: 0.2; Binding of serum 2 to linear peptides of protein N of SARS-CoV Urbani [1]: 0.5; Binding of serum 6 to linear peptides of protein N of SARS-CoV Urbani [1]: 0.3; Binding of serum 37 to linear peptides of protein N of SARS-CoV Urbani [1]: 0.9; Binding of serum 62 to linear peptides of protein N of SARS-CoV Urbani [1]: 0.9; Binding of serum London to linear peptides of protein N of SARS-CoV Urbani [1]: 0.6; Binding of serum SARS-green to linear peptides of protein N of SARS-CoV Urbani [1]: 1.0; Binding of serum SARS-yellow to linear peptides of protein N of SARS-CoV Urbani [1]: 0.8
